# How the values were obtained:
# EMT-6 mouse tumor cells [1] = assay: Photosensitizing effectiveness with EMT-6 tumor cells in vitro (photoinactivation); format: cell-based; details: for Photoinactivation rate (1/D50): 670 nm (pheophorbide) or 750 nm (bacteriopheophorbide), one hour exposure
# Protocol: EMT-6 mouse tumor cells were exposed in slowly-stirred suspension cultures to various concentrations of Ph6-OH, Ph4-OH and BPh4-OH for one hour prior to illumination with graded light doses of specific wavelength. The pheophorbide and bacteriopheophorbide compounds were illuminated with 670 and 750 nm light, respectively. Illuminated cell populations were plated into Petri dishes containing appropriate media for colony forming assays. The surviving fraction (SF) of cells after various PDT treatments was computed from the ratio, [plating efficiency (treated cells)]/[plating efficiency (control cells)]. For each photosensitizer dosage investigated,survival curves of log SF versus light dose were constructed and analyzed. The light dose required to kill 50%, 90% and 99% of tumor cell populations (D50, D10 and D01) were determined. The reciprocal of light dose required to kill 50% of a tumor cell population (1/D50) was used as a photoinactivation rate for each concentration and as a basis for comparison of photosensitizer efficacy. Inactivation rates for the various photosensitizing agents activated with 630 (Photofrin® ), 670 (Ph6-OH) and 750 (BPh4-OH) nm light are shown in the accompanying Figure. Rates of photoinactivation and relative effectiveness of the pheophorbide and bacteriopheophorbide compounds compared to Photofrin®are given in Table C. The inactivation rate for Photofrin® was extrapolated from data generated at much higher drug concentrations utilizing the same experimental protocol. The relative effectiveness of Ph4-OH and BPh4-OH are approximately 800X and approximately 1150X, respectively.
# For each concentration of photosensitizer compound studied, there was a threshold dose of light below which little or no cell killing occurred. […] For example, for PH6-OH at 0.1, 0.3 and 0.5 μM, the threshold light dose was 0.75, 0.18 and 0.08J/cm^2, respectively.
# [2] = system: UNA mouse endothelial cells; assay: Photosensitizer drug uptake into UNA endothelial cells; format: cell-based
# Protocol: (§1) EMT-6 mouse tumor and UNA mouse endothelial cells were exposed to various concentrations of the photosensitizer compounds of the invention in slowly-stirred suspension cultures. […] Cells were lysed and solubilized by mixing 1 mL of cell suspension with 1 mL 4% Triton X-100. After 2 hours of extraction, samples were mixed with 2 mL 95% EtOH and photosensitizer levels quantified by spectrofluorometry using Eex =400 nm and Eem =670 nm. […] For both cell lines, uptake is dependent upon photosensitizer concentration in the media and the larger volume tumor cells show the higher rates of uptake. If drug uptake rate is normalized to a standard cell volume, EMT-6 tumor cells bind the photosensitizer at 1.25 times that of UNA endothelial cells.
# [3] = system: Dunning prostate carcinomas (R3327-AT); assay: Tumor response and cure of Dunning prostate carcinomas after PDT; format: in vivo, Fischer X Copenhagen rats
# Text: Tumor response and cure was also investigated with 4-5 cm^3 Dunning prostate carcinomas (R3327-AT) growing in Fischer X Copenhagen rats. These tumors were illuminated by laser light delivered by a laterally-diffusing optical fiber applicator which contained seven fibers in an hexagonal array of equilateral triangles with 0.9 cm spacing.
# EMT-6 tumor cells = assay: Plating efficiency (colony forming assay) of EMT-6 tumor cells from tumors treated in vivo by PDT; parameters: species or system C.B17/Icr scid mice; details: for Plating efficiency, excision at 24 hr / Plating efficiency, immediate excision: 300J of 670 nm light
# Protocol: (§2) Photosensitizer efficacy was measured with two different tumor models. Solid EMT-6 tumors (~0.1 cm^3) growing on the backs of C.B17/Icr scid mice were exposed to 300J of 670 nm light one hour after the iv administration of Ph4-OH. Light was generated by a laser, transported to the tumor-bearing mouse via an optical fiber and focused onto the tumor surface through a diffusing lens. The light dose rate at the tumor surface was 200-400 mW/cm^2 and the field size encompassed the tumor cross section. […] EMT-6 tumor response was quantified by two different assays. At various times after PDT treatment, animals were sacrified, tumors were removed in toto from the animal and mechanically disrupted. Tumor cells were released by an enzyme digestion procedure. Released tumor cells were plated into Petri dishes for colony forming assays.
# IN VITRO PLATING EFFICIENCIES OF EMT-6
# TUMOR CELLS FROM TUMORS TREATED IN VIVO
# BY PDT WITH 300J OF 670 NM LIGHT
# EMT-6 tumors = assay: EMT-6 tumor regrowth assay after PDT; format: in vivo, C.B17/Icr scid mice; details: for Regrowth time (time to grow to two times the treatment volume): 300J of 670 nm one hr after administration
# Protocol: as §2
# Tumor response to PDT was also quantified by tumor regrowth assay. The volumes of both untreated and PDT-treated tumors in animals were estimated from caliper measurements made three times a week. Tumor response in vivo was characterized by acute inflammatory reaction observed on days 1 and 2 after treatment followed by tumor volume shrinkage and eventual cure or regrowth. These responses from individual tumors were quantified in days after treatment required for tumors to reach two times their treatment volume. […] Tumor response is a function of photosensitizer dosage. […] In this assay, some tumor cures are consistently observed when growth delay times are 15 days and greater.
# TIME FOR EMT-6 TUMORS TO GROW TO TWO
# TIMES THE TREATMENT VOLUME AFTER 300J
# OF 670 NM DELIVERED ONE HR AFTER I.V.
# PHOTOSENSITIZER ADMINISTRATION
# EMT-6 mouse tumor cells [4] = assay: Photosensitizer drug uptake into EMT-6 tumor cells; format: cell-based; details: for Initial binding rate: EMT-6
# Protocol: as §1
# [5] = .3 μM, compared to Photofrin (= 1)
structure (smiles),measurement,setting,value
"CCC1c2cc3[nH]c4c(c3C)C(=O)C(C(=O)OC)c4c3nc(cc4[nH]c(cc(n2)C1C)c(C(C)=O)c4C)C(C)C3CCC(=O)NCCCCO (stereo not shown) [BPh4-OH, 9-Acetyl-14-ethyl-13,14-dihydro-21-(methoxycarbonyl)-4,8,13,18-tetramethyl-20-oxo-N-(4-hydroxybutyl)-3-phorbinepropanamide]",Photoinactivation rate (1/D50),EMT-6 mouse tumor cells [1]; .3 μM,10.4 (J/cm^2)^-1
same,Relative effectiveness,EMT-6 mouse tumor cells [1]; [5],1156
same,Relative effectiveness,EMT-6 mouse tumor cells [1]; compared to Photofrin,approximately 1150 X
"C=Cc1c(C)c2cc3nc(c4c5[nH]c(cc6nc(cc1[nH]2)C(C)=C6CC)c(C)c5C(=O)C4C(=O)OC)C(CCC(=O)NCCCCO)C3C (stereo not shown) [Ph4-OH, 9-Ethenyl-14-ethyl-21-(methoxycarbonyl)-4,8,13,18-tetramethyl-20-oxo-N-(4-hydroxybutyl)-3-phorbinepropanamide]",Initial binding rate,[2]; 0.5 μM,0.067 μg/10^6 cells/hr
same,Initial binding rate,[2]; 1.0 μM,0.038 μg/10^6 cells/hr
same,Photoinactivation rate (1/D50),EMT-6 mouse tumor cells [1]; .3 μM,7.30 (J/cm^2)^-1
same,Relative effectiveness,EMT-6 mouse tumor cells [1]; [5],811
same,Relative effectiveness,EMT-6 mouse tumor cells [1]; compared to Photofrin,approximately 800 X
same,Tumor necrosis and response,"[3]; 2 mg/kg iv, 400J of 670 nm light one hour after administration, 4-5 cm^3 tumors",Complete tumor necrosis and response
same,Potency relative to Photofrin for inducing tumor necrosis and cure,[3]; relative to Photofrin,at least eighty times more potent
same,"Plating efficiency, excision at 24 hr",EMT-6 tumor cells; 1 mg/kg iv,0.001 ± 0.001
same,"Plating efficiency, immediate excision",EMT-6 tumor cells; 1 mg/kg iv,0.55 ± 0.07
same,"Plating efficiency, excision at 24 hr",EMT-6 tumor cells; 2 mg/kg iv,≤ 0.0001
same,"Plating efficiency, immediate excision",EMT-6 tumor cells; 2 mg/kg iv,0.48 ± 0.09
same,Tumor cell plating efficiency when tumors excised 24 hr after PDT,"EMT-6 tumor cells; 24 hr after PDT, in words",decreased dramatically in proportion to photosensitizer concentration and light dose
same,Tumor cell killing when tumors excised immediately after PDT,"EMT-6 tumor cells; immediately after PDT, in words",little or no killing observed
same,Potency relative to Photofrin for producing same extent of tumor cell kill in vivo,"EMT-6 tumor cells; relative to Photofrin, photosensitizer and light doses",at least fifty times more potent
same,Regrowth time (time to grow to two times the treatment volume),EMT-6 tumors; 0.45 mg/kg i.v.,4.3 ± 0.4 days
same,Regrowth time (time to grow to two times the treatment volume),EMT-6 tumors; 0.75 mg/kg i.v.,8.6 ± 0.5 days
same,Regrowth time (time to grow to two times the treatment volume),EMT-6 tumors; 1.00 mg/kg i.v.,12.4 ± 0.6 days
same,Regrowth time (time to grow to two times the treatment volume),EMT-6 tumors; 1.50 mg/kg i.v.,> 22.0 days
same,Tumor response (compared with Ph6-OH),"EMT-6 tumors; 300J of 670 nm light, in words",superior tumor response
same,Potency relative to Photofrin for equal tumor growth delay,"EMT-6 tumors; relative to Photofrin, photosensitizer dosage and light dose",at least fifty times more potent
same,Initial binding rate,EMT-6 mouse tumor cells [4]; 0.5 μM,0.097 μg/10^6 cells/hr
same,Initial binding rate,EMT-6 mouse tumor cells [4]; 1.0 μM,0.068 μg/10^6 cells/hr
same,"Uptake rate normalized to standard cell volume, EMT-6 tumor cells relative to UNA endothelial cells",EMT-6 mouse tumor cells [4]; ratio EMT-6/UNA,1.25 times
"C=Cc1c(C)c2cc3nc(c4c5[nH]c(cc6nc(cc1[nH]2)C(C)=C6CC)c(C)c5C(=O)C4C(=O)OC)C(CCC(=O)NCCCCCCO)C3C (stereo not shown) [Ph6-OH, 9-Ethenyl-14-ethyl-21-(methoxycarbonyl)-4,8,13,18-tetramethyl-20-oxo-N-(6-hydroxyhexyl)-3-phorbinepropanamide]",Threshold light dose below which little or no cell killing occurred,EMT-6 mouse tumor cells [1]; 0.1 μM,0.75 J/cm^2
same,Threshold light dose below which little or no cell killing occurred,EMT-6 mouse tumor cells [1]; 0.3 μM,0.18 J/cm^2
same,Threshold light dose below which little or no cell killing occurred,EMT-6 mouse tumor cells [1]; 0.5 μM,0.08 J/cm^2
same,Photoinactivation rate (1/D50),EMT-6 mouse tumor cells [1]; .3 μM,5.10 (J/cm^2)^-1
same,Relative effectiveness,EMT-6 mouse tumor cells [1]; [5],567
same,Regrowth time (time to grow to two times the treatment volume),EMT-6 tumors; 0.60 mg/kg i.v.,4.7 ± 0.7 days
same,Regrowth time (time to grow to two times the treatment volume),EMT-6 tumors; 1.00 mg/kg i.v.,7.9 ± 1.3 days
same,Regrowth time (time to grow to two times the treatment volume),EMT-6 tumors; 3.00 mg/kg i.v.,25.5 ± 2.9 days

# Reference: patent US5492924A, “Phorbine derivatives and their use in the diagnosis and therapy of cancer” (Fox Chase Cancer Center, priority 1993, dated 1996)
